Key:
clinical = conditions: human, plasma, sc, 100 mg/m2
[1] = standard of care over seven consecutive days by injection or infusions, cited from earlier work

AUC(0-inf) (clinical): 1.12 µg·h/mL
Cmax (clinical): 0.562 µg/mL
Tmax (clinical): 0.433 h
half-life (clinical): 6.82 h
SMILES: Nc1ncn([C@@H]2O[C@H](CO)[C@@H](O)[C@H]2O)c(=O)n1 [azacitidine, 4-amino-1-®-D-ribofuranosyl-s-triazin-2(1H)-one]
average AUC∞ ([1]; 525 mg/m^2 of BSA): 0.96 ± 0.458 µg·h/mL
average Cmax [1]: 0.75 ± 0.403 µg/mL

Source: US20240277749A1, “NEW FORMULATIONS COMPRISING AZACITIDINE” (NANEXA AB, priority 2021, published 2024)
